# pIC50, pKi: −log10 of the molar value.
# What was measured:
# CCRF-CEM [1] = experiment: Growth inhibition of human CCRF-CEM cells incubated for 48 hrs by sulforhodamine B assay; format: functional
# HL-60(TB) = experiment: Growth inhibition of human HL-60(TB) cells incubated for 48 hrs by sulforhodamine B assay; format: functional; conditions: HL-60, 48 h
# SR = experiment: Growth inhibition of human SR cells incubated for 48 hrs by sulforhodamine B assay; format: functional
# A549 = experiment: Growth inhibition of human A549/ATCC cells incubated for 48 hrs by sulforhodamine B assay; format: functional; conditions: A549, 48 h
# EKVX = experiment: Growth inhibition of human EKVX cells incubated for 48 hrs by sulforhodamine B assay; format: functional
# HOP-92 = experiment: Growth inhibition of human HOP92 cells incubated for 48 hrs by sulforhodamine B assay; format: functional; conditions: HOP-92, 48 h
# NCI-H460 = experiment: Growth inhibition of human NCI-H460 cells incubated for 48 hrs by sulforhodamine B assay; format: functional; conditions: NCI-H460, 48 h
# COLO 205 = experiment: Growth inhibition of human COLO205 cells incubated for 48 hrs by sulforhodamine B assay; format: functional; conditions: COLO 205, 48 h
# HCT-15 = experiment: Growth inhibition of human HCT15 cells incubated for 48 hrs by sulforhodamine B assay; format: functional; conditions: HCT-15, 48 h
# KM12 = experiment: Growth inhibition of human KM12 cells incubated for 48 hrs by sulforhodamine B assay; format: functional; conditions: KM12, 48 h
# SF-268 = experiment: Growth inhibition of human SF268 cells incubated for 48 hrs by sulforhodamine B assay; format: functional; conditions: SF-268, 48 h
# SNB-19 = experiment: Growth inhibition of human SNB19 cells incubated for 48 hrs by sulforhodamine B assay; format: functional; conditions: SNB-19, 48 h
# LOX IMVI = experiment: Growth inhibition of human LOXIMVI cells incubated for 48 hrs by sulforhodamine B assay; format: functional
# SK-MEL-2 = experiment: Growth inhibition of human SK-MEL-2 cells incubated for 48 hrs by sulforhodamine B assay; format: functional; conditions: SK-MEL-2, 48 h
# SK-MEL-5 = experiment: Growth inhibition of human SK-MEL-5 cells incubated for 48 hrs by sulforhodamine B assay; format: functional; conditions: SK-MEL-5, 48 h
# UACC-62 = experiment: Growth inhibition of human UACC62 cells incubated for 48 hrs by sulforhodamine B assay; format: functional; conditions: UACC-62, 48 h
# OVCAR-3 = experiment: Growth inhibition of human OVCAR3 cells incubated for 48 hrs by sulforhodamine B assay; format: functional; conditions: OVCAR-3, 48 h
# OVCAR-5 = experiment: Growth inhibition of human OVCAR5 cells incubated for 48 hrs by sulforhodamine B assay; format: functional; conditions: OVCAR-5, 48 h
# NCI/ADR-RES = experiment: Growth inhibition of human NCI/ADR-RES cells incubated for 48 hrs by sulforhodamine B assay; format: functional
# 786-0 = experiment: Growth inhibition of human 786-0 cells incubated for 48 hrs by sulforhodamine B assay; format: functional; conditions: 786-0, 48 h
# ACHN = experiment: Growth inhibition of human ACHN cells incubated for 48 hrs by sulforhodamine B assay; format: functional
# PC-3 = experiment: Growth inhibition of human PC3 cells incubated for 48 hrs by sulforhodamine B assay; format: functional; conditions: PC-3, 48 h
# T47D = experiment: Growth inhibition of human T47D cells incubated for 48 hrs by sulforhodamine B assay; format: functional
# CCRF-CEM [2] = experiment: Growth inhibition of human CCRF-CEM cells at 10^-5 M incubated for 48 hrs by sulforhodamine B assay relative to control; format: functional; conditions: read-out: GI
# IGROV-1 = experiment: Growth inhibition of human IGROV1 cells at 10^-5 M incubated for 48 hrs by sulforhodamine B assay relative to control; format: functional; conditions: IGROV-1, 48 h, read-out: GI
# HT-29 = experiment: Growth inhibition of human HT-29 cells at 10^-5 M incubated for 48 hrs by sulforhodamine B assay relative to control; format: functional; conditions: HT-29, 48 h, read-out: GI
# [3] = system: Panel NCI-60 (60 carcinoma cell lines); experiment: Growth inhibition of human NCI60 cells at incubated for 48 hrs by sulforhodamine B assay; format: functional
# C6 = experiment: Induction of morphological changes in rat C6 cells assessed as increase in total length of processes measured after 24 hrs by inverted microscopy analysis relative to control; format: functional
# Dihydrofolate reductase [4] = molecular target: T1, Dihydrofolate reductase (Homo sapiens, UniProt P00374); experiment: Inhibition of human dihydrofolate reductase using dihydrofolic acid as substrate preincubated for 1 hr in presence of NADPH followed by substrate addition by enzyme immunoassay
# T1 sequence (P00374 whole entry): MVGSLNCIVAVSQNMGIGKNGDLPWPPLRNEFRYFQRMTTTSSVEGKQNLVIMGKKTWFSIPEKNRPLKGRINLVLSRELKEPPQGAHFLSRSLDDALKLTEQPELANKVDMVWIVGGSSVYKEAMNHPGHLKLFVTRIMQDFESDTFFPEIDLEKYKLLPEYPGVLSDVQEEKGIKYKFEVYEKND
# Dihydrofolate reductase [5] = molecular target: T1, Dihydrofolate reductase; experiment: Inhibition of human dihydrofolate reductase assessed as inhibition constant by UV-Vis spectra based Benesi Hilebrand equation analysis
# [6] = read-out: LC50 (the source's name)
# [7] = read-out: pLC50 (the source's name) (converted)
structure (smiles),measurement,setting,value
O=C(OC[C@@H]1CO1)c1cccc2c(=O)c3ccccc3[nH]c12,GI50,CCRF-CEM [1]; read-out: GI50,0.77 µM
same,CC50,CCRF-CEM [1]; [6],> 100 µM
same,CC50,CCRF-CEM [1]; [7],> 100 µM
same,TGI,CCRF-CEM [1]; read-out: pTGI (converted),21.9 µM
same,GI50,HL-60(TB),1.29 µM
same,CC50,HL-60(TB); [7],8.51 µM
same,TGI,HL-60(TB); read-out: pTGI (converted),3.31 µM
same,GI50,SR; read-out: GI50,0.3 µM
same,CC50,SR; [6],> 100 µM
same,GI50,SR; read-out: pGI50 (converted),0.302 µM
same,CC50,SR; [7],> 100 µM
same,TGI,SR; read-out: pTGI (converted),4.37 µM
same,GI50,A549,2.45 µM
same,CC50,A549; [7],> 100 µM
same,TGI,A549; read-out: pTGI (converted),7.24 µM
same,GI50,EKVX,2.57 µM
same,CC50,EKVX; [7],> 100 µM
same,TGI,EKVX; read-out: pTGI (converted),6.46 µM
same,GI50,HOP-92,2.04 µM
same,CC50,HOP-92; [7],> 100 µM
same,TGI,HOP-92; read-out: pTGI (converted),5.25 µM
same,GI50,NCI-H460,1.7 µM
same,CC50,NCI-H460; [7],51.3 µM
same,TGI,NCI-H460; read-out: pTGI (converted),4.47 µM
same,GI50,COLO 205,1.48 µM
same,CC50,COLO 205; [7],33.9 µM
same,TGI,COLO 205; read-out: pTGI (converted),4.17 µM
same,GI50,HCT-15,1.66 µM
same,CC50,HCT-15; [7],> 100 µM
same,TGI,HCT-15; read-out: pTGI (converted),5.25 µM
same,GI50,KM12,2.19 µM
same,CC50,KM12; [7],> 100 µM
same,TGI,KM12; read-out: pTGI (converted),7.08 µM
same,GI50,SF-268; read-out: pGI50 (converted),1.62 µM
same,CC50,SF-268; [7],> 100 µM
same,TGI,SF-268; read-out: pTGI (converted),6.03 µM
same,GI50,SNB-19,2.29 µM
same,CC50,SNB-19; [7],28.2 µM
same,TGI,SNB-19; read-out: pTGI (converted),7.76 µM
same,GI50,LOX IMVI; read-out: pGI50 (converted),1.51 µM
same,CC50,LOX IMVI; [7],6.61 µM
same,TGI,LOX IMVI; read-out: pTGI (converted),3.16 µM
same,GI50,SK-MEL-2,1.95 µM
same,CC50,SK-MEL-2; [7],7.41 µM
same,TGI,SK-MEL-2; read-out: pTGI (converted),3.8 µM
same,GI50,SK-MEL-5,1.51 µM
same,CC50,SK-MEL-5; [7],5.5 µM
same,TGI,SK-MEL-5; read-out: pTGI (converted),2.88 µM
same,GI50,UACC-62,1.58 µM
same,CC50,UACC-62; [7],6.03 µM
same,TGI,UACC-62; read-out: pTGI (converted),3.09 µM
same,GI50,OVCAR-3,2.29 µM
same,CC50,OVCAR-3; [7],51.3 µM
same,TGI,OVCAR-3; read-out: pTGI (converted),7.24 µM
same,GI50,OVCAR-5,2.45 µM
same,CC50,OVCAR-5; [7],> 100 µM
same,TGI,OVCAR-5; read-out: pTGI (converted),6.46 µM
same,GI50,NCI/ADR-RES,1.7 µM
same,CC50,NCI/ADR-RES; [7],> 100 µM
same,TGI,NCI/ADR-RES; read-out: pTGI (converted),6.31 µM
same,GI50,786-0,2.75 µM
same,CC50,786-0; [7],> 100 µM
same,TGI,786-0; read-out: pTGI (converted),8.13 µM
same,GI50,ACHN; read-out: GI50,0.89 µM
same,CC50,ACHN; [6],> 100 µM
same,GI50,ACHN; read-out: pGI50 (converted),0.891 µM
same,CC50,ACHN; [7],> 100 µM
same,TGI,ACHN; read-out: pTGI (converted),3.89 µM
same,GI50,PC-3,2.04 µM
same,CC50,PC-3; [7],> 100 µM
same,TGI,PC-3; read-out: pTGI (converted),8.32 µM
same,GI50,T47D,2.51 µM
same,CC50,T47D; [7],> 100 µM
same,TGI,T47D; read-out: pTGI (converted),8.32 µM
same,inhibition of growth at 10 µM,CCRF-CEM [2],93%
same,inhibition of growth at 10 µM,IGROV-1,100%
same,inhibition of growth at 10 µM,HT-29,100%
same,GI50,[3],0.3 µM
same,TGI,[3],1.2 µM
same,CC50,[3]; [6],38 µM
same,Activity,C6,85.53%
same,pIC50,Dihydrofolate reductase [4],8.00
same,pKi,Dihydrofolate reductase [5],7.04
